Where a name gives a salt, the structure may show the parent alone. Read-outs that look alike come from different tables or passages of the source.
How the values were obtained:
sigma receptor = test: Sigma binding test (in vitro), inhibition of [3H] ditolylguanidine binding; set-up: species or system guinea pig
Protocol: b) Sigma binding test (in vitro)
The affinity of the compounds of the invention to the sigma receptor in brain tissue is evaluated by the degree of inhibition of the binding of a sigma site radioligand in in vitro competition experiments.
The experiment protocol used is that described by WEBER et at. Proc. Nat. Acad. Sci. USA, (1986), 83, 8784-8788.
The ligand is 1,2-di-(2-[5-^3 H]tolyl)guanidine (Dupont de Nemours--55 Ci/mmol) at a final concentration of 2 nM.
The membrane preparation is a suspension of central nervous system microsomes of a guinea pig used at a final concentration of 0.5 mg of prot/ml.
The non-specific fixation is determined in the presence of 10 μM of haloperidol.
The results, given in Table III, to illustrate the invention are expressed at IC50 =K.0.5 (M)

5HT1A receptor = molecular target: T1, 5HT1A receptor (Rattus norvegicus, UniProt P19327); test: "Tail-Flicks" test on rats (reduction of 8-OH-DPAT induced tail movements); type: in vivo; details: sc, tail movements induced by subcutaneous 8-OH-DPAT, read-out: ED50 (amount that reduces 8-OH-DPAT action by 50%)
T1 construct: Subcutaneous injection of rats with 8-OH-DPAT spontaneously induces tail movements; from tissue; host or cells: whole living rat (in vivo)
T1 sequence (P19327 1-422): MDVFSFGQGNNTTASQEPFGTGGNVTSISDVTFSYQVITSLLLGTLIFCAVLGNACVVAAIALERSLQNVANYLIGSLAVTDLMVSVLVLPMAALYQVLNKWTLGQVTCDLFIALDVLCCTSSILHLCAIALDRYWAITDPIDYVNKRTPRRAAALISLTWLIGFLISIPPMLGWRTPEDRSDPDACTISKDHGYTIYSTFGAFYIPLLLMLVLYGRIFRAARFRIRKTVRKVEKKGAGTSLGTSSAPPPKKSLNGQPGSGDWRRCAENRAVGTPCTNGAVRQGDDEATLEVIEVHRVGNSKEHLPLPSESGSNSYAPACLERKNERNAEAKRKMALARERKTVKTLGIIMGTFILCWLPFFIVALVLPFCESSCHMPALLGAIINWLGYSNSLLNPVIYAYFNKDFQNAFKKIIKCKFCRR
Description: a) "Tail-Flicks" test on rats
Subcutaneous injection of rats with 8-OH-DPAT spontaneously induces tail movements ("Tail-Flicks"). These movements are reduced in a specific manner by 5HT1A receptor antagonists. The ED50 values, that is to say those amounts of the compounds of the invention that reduce 8-OH-DPAT action by 50%, are listed in Table II.

[1] = guinea pig central nervous system microsomes, 0.5 mg of prot/ml, ligand 2 nM, non-specific: 10 μM haloperidol

IC50 (sigma receptor; [1]) [nM]	ED50 (5HT1A receptor) [mg/kg]	Structure (SMILES)	IC50 (sigma receptor) [nM]
50	1.25	C=COC(=O)N(C)C1CCN(CC2Cc3ccccc32)CC1 (racemic) [Example 42, (R,S)-vinyl N-[1-(benzocyclobuten-1ylmethyl)-piperid-4-yl]-N-methylcarbamate hydrochlo ride]	
	1.25	COC(=O)N(C)C1CCN(CC2Cc3ccccc32)CC1 (stereo not drawn) [Example 8, Methyl [1-benzocyclobuten-1-ylmethyl)-piperid-4-yl]-N-methylcarbamate hydrochloride]	
30	0.31	CCCOC(=O)N(C)C1CCN(CC2Cc3ccccc32)CC1 (stereo not drawn) [Example 9, Propyl N-[1-(benzocyclobuten-1-ylmethyl)-piperid-4-yl]-N-methylcarbamate hydrochloride]	
	2.5	CN(C(=O)OC(C)(C)C)C1CCN(CC2Cc3ccccc32)CC1 (stereo not drawn) [Example 11, Tert-butyl N-[1-(benzocyclobuten-1-ylmethyl)-piperid-4-yl]-N-methylcarbamate hydrochl oride]	
		CN(C(=O)Oc1ccccc1)C1CCN(CC2Cc3ccccc32)CC1 (stereo not drawn) [Example 12, Phenyl N-[1-(benzocyclobuten-1-ylmethyl)-piperid-4-yl]-N-methylcarbamate hydrochloride]	30
	1.25	CCOC(=O)N(CC)C1CCN(CC2Cc3ccccc32)CC1 (stereo not drawn) [Example 13, Ethyl N-[1-(benzocyclobuten-1-ylmethyl)-piperid-4-yl]-N-ethylcarbamate hydrochloride]	
	0.02	CCN(C(=O)OC)C1CCN(CC2Cc3ccccc32)CC1 (stereo not drawn) [Example 14, Methyl N-[1-(benzocyclobuten-1-ylmethyl)-piperid-4-yl]-N-ethylcarbamate hydrochloride]	
100	1.25	CC(C)COC(=O)N(C)C1CCN(CC2Cc3ccccc32)CC1 (stereo not drawn) [Example 15, Isobutyl N-[1-(benzocyclobuten-1-ylmethyl)-piperid-4-yl]-N-methylcarbamate fumarate]	
30		CN(C(=O)OCc1ccccc1)C1CCN(CC2Cc3ccccc32)CC1 (stereo not drawn) [Example 19, Benzyl N-[1-(benzocyclobuten-1-ylmethyl)-piperid-4-yl]-N-methylcarbamate hydrochloride]	
	0.63	CCN(C(C)=O)C1CCN(CC2Cc3ccccc32)CC1 (stereo not drawn) [Example 21, N-[1-(benzocyclobuten-1-ylmethyl)-piperid-4-yl]-N-ethylacetamide hydrochloride]	
	2.5	CCOC(=O)N(C)C1CCN(CC2Cc3ccccc32)CC1 (stereo not drawn) [Example 23, Ethyl N-[1-(benzocyclobuten-1-ylmethyl)-piperid-4-yl]-N-methylcarbamate hydrochloride]	
	2.5	CCOC(=O)N(C)C1CCN(CC2Cc3c2ccc2c3OCO2)CC1 (stereo not drawn) [Example 28, Ethyl N-{1-[(3,4-methylenedioxybenzocyclobuten-1-yl)methyl[-piperid-4-yl}-N-methylcarbamate fumarate]	
4		CC(C)COC(=O)N(C)C1CCN(C2Cc3ccccc3C2)CC1 [Example 43, Isobutyl N-[1-(indan-2-yl)-piperid-4-yl]-N-methylcarbamate fumarate]	
40	2.5	CCCOC(=O)N(C)C1CCN(C2Cc3ccccc3C2)CC1 [Example 44, Propyl N-[1-(indan-2-yl)-piperid-4-yl]-N-methylcarbamate]	

Source: patent publication US5214055A, “Aminopiperidine 4-oxo-4H-chromen-2-yl compounds” (Adir et Compagnie, priority 1990, dated 1993)
